The values below come from PMC6312923 (Life Science Alliance, 2018).

The assay has as its system U2OS cells. In words: Nuclear enlargement / re-replication in U2OS cells. The assay is classed as cell-based, human. The following applies: siCdt2 72 h. On the procedure:
Next, we examined Cdt1 degradation after the onset of the S phase in the Cdt2^PIP-3A-expressing cells. Cyclin A is present in the S and G2 phase, when Cdt1 should be degraded. Thus, Cdt1 should be present in cells that are negative for cyclin A, and absent in cells that are positive for cyclin A ([Nishitani et al, 2006]; [Xouri et al., 2007a], [2007b]). Cdt1 degradation after the onset of the S phase is carried out by two ubiquitin ligases, CRL1^Skp2 and CRL4^Cdt2. We depleted the substrate recognition subunits, Cdt2 and/or Skp2, by siRNA, and the percentage of Cdt1 positive cells among cyclin A–positive cells was assessed by immunofluorescence. In control siRNA-transfected U2OS cells, ∼2% of cyclin A–positive cells stained positive for Cdt1. […]
Figure 8. […] The frequency of Cdt1-positive (+) cells among cyclin A–positive (+) cells was calculated (n = 3). […] (D) Cells treated with siCdt2 or control siLuc were measured for their nuclear size (n = 200 for each), and are shown in a scatter plot. […]
Double-stranded RNAs were transfected at 100 nM using Oligofectamine (Invitrogen) or HiPerFect (QIAGEN). […] For Cdt1 silencing in Fig 1A and B, unsychronized HeLa cells were transfected twice with 200 nM of Cdt1 siRNA or control luciferase siRNA using Lipofectamine 2000 with a time interval of 24 h and were analysed 48 h after the second transfection. […]

“Cdt2: Cdt2 tagged with GFP, transiently expressed in MCF7 cells”: the “enlarged nuclei (re-replication) phenotype” value is on record as “rescued”.
